Source: PMC5338263, “GS-5734 and its parent nucleoside analog inhibit Filo-, Pneumo-, and Paramyxoviruses” (Scientific Reports, 2017)
Where two headings read alike, the source gives them in different places.

Key:
EBOV wt Makona = experiment: microbe, parasite or virus in culture; assay type: cell-based, Ebola virus; conditions: Zaire ebolavirus, Huh-7
MV EZ vaccine = experiment: microbe, parasite or virus in culture; conditions: Measles morbillivirus, HeLa
Filo (filoviruses) = experiment: organism not typed; assay type: cell-based; conditions: read-out: potency class (EC50)
[1] = tested on: LASV Josiah (Lassa virus); experiment: in vitro; conditions: human
[2] = tested on: AHFV 200300001 (Alkhurma Hemorrhagic Fever virus); experiment: in vitro; conditions: human
[3] = tested on: KFDV P9605 (Kyasanur Forest Disease virus); experiment: in vitro; conditions: human
Corona (coronaviruses) = conditions: cited from earlier work
EBOV minigenome = experiment: cells; assay type: cell-based, Ebola virus
Ebola virus = conditions: human, in vivo; cited from earlier work

Compound | EC50 (EBOV wt Makona) | EC50 (EBOV Rec. Mayinga-GFP) | EC50 (MV EZ vaccine) | EC90 (MV EZ vaccine) | EC50 (Filo (filoviruses)) | EC50 (EBOV Rec. Mayinga-Gluc) | selectivity ratio [1] | selectivity ratio [2] | EC50 (AHFV 200300001) | selectivity ratio [3] | activity in cell-based antiviral assays (Corona (coronaviruses)) | EC50 (EBOV minigenome) | EC50 (EBOV minigenome; Zaire ebolavirus, Huh-7, 48 h) | survival of patients (Ebola virus)
N#C[C@@]1(c2ccc3c(N)ncnn23)O[C@H](CO)[C@@H](O)[C@H]1O [Nuc] | 1610 ± 420 nM | 1600 nM | 2010 nM | 5100 nM | – | – | – | – | – | – | – | – | – | –
CCC(CC)COC(=O)[C@H](C)N[P@](=O)(OC[C@H]1O[C@@](C#N)(c2ccc3c(N)ncnn23)[C@H](O)[C@@H]1O)Oc1ccccc1 [GS-5734] | – | – | – | – | < 100 nM | 21 nM | 2.2 | 2.4 | 4200 nM | 5.6 | shown activity | sub-micromolar range | 420 nM | both of whom survived
